Counter-ions that a name gives are not always drawn.
The compounds below were run against T1, human sigma 1 receptor (Homo sapiens, UniProt Q99720) (assay: Human sigma 1 receptor radioligand assay ([3H](+)-pentazocine, transfected HEK-293 membranes)). Settings: 5 nM [3H](+)-pentazocine, 37° C., 120 minutes.
T1 construct: expressed in transfected cells; host or cells: HEK-293
Assay type: binding
Protocol: Biological Activity Pharmacological Study Human Sigma 1 Receptor Radioligand Assay
To investigate binding properties of sigma 1 receptor ligands to human sigma 1 receptor, transfected HEK-293 membranes and [^3H](+)-pentazocine (Perkin Elmer, NET-1056), as the radioligand, were used. The assay was carried out with 7 μg of membrane suspension, 5 nM of [^3H](+)-pentazocine in either absence or presence of either buffer or 10 μM Haloperidol for total and non-specific binding, respectively. Binding buffer contained Tris-HCl 50 mM at pH 8. Plates were incubated at 37° C. for 120 minutes. After the incubation period, the reaction mix was then transferred to MultiScreen HTS, FC plates (Millipore), filtered and plates were washed 3 times with ice-cold 10 mM TrisHCL (pH7.4). Filters were dried and counted at approximately 40% efficiency in a MicroBeta scintillation counter (Perkin-Elmer) using EcoScint liquid scintillation cocktail.

T1 sequence (Q99720 whole entry): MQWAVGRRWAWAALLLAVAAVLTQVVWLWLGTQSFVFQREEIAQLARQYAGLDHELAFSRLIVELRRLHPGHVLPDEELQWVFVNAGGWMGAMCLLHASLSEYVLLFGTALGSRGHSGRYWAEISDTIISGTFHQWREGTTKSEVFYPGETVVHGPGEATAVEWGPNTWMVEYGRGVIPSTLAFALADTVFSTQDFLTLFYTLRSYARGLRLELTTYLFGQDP

`CC(CN1CCn2c(cc3ccccc32)C1)N1CCN(C)CC1` (stereo not shown) [Example 1, 2-(2-(4-methylpiperazin-1-yl)propyl)-1,2,3,4-tetrahydropyrazino[1,2-a]indole] was tested. Which Ki did it give?
The Ki was 29.8 nM.

How did the Ki turn out when `c1ccc2c(c1)CC1CN(CCN3CCCCCC3)CCN21` (stereo not shown) [Example 2, 2-(2-(azepan-1-yl)ethyl)-1,2,3,4,10,10a-hexahydropyrazino[1,2-a]indole] was run?
The Ki was 7.3 nM.

How did the Ki turn out when `c1ccc2c(c1)cc1n2CCN(CCN2CCCCCC2)C1` [Example 3, 2-(2-(azepan-1-yl)ethyl)-1,2,3,4-tetrahydropyrazino[1,2-a]indole hydrochloride] was run?
Its Ki is 3.9 nM.

`c1ccc(CC2CCN(CCN3CCn4c(cc5ccccc54)C3)CC2)cc1` [Example 4, 2-(2-(4-benzylpiperidin-1-yl)ethyl)-1,2,3,4-tetrahydropyrazino[1,2-a]indole hydrochloride] was tested. Which Ki did it give?
The Ki was 14.6 nM.

With `CN1CCN(CCN2CCn3c(cc4ccccc43)C2)CC1` [Example 5, 2-(2-(4-methylpiperazin-1-yl)ethyl)-1,2,3,4-tetrahydropyrazino[1,2-a]indole hydrochloride] as the compound, how does the Ki read?
Its Ki is 153 nM.

For `CC(CN1CCn2c(cc3ccccc32)C1)N1CCC(Cc2ccccc2)CC1` (stereo not shown) [Example 6, 2-(2-(4-benzylpiperidin-1-yl)propyl)-1,2,3,4-tetrahydropyrazino[1,2-a]indole maleate], which Ki is on record?
Its Ki is 175 nM.

`CN(C)CCCCN1CCn2c(cc3ccccc32)C1` [Example 7, 4-(3,4-dihydropyrazino[1,2-a]indol-2(1H)-yl)-N,N-dimethylbutan-1-amine] was tested. Which Ki did it give?
Its Ki is 89.1 nM.

For `Cc1c2n(c3ccccc13)CCN(CCN1CCCCCC1)C2` [Example 8, 2-(2-(azepan-1-yl)ethyl)-10-methyl-1,2,3,4-tetrahydropyrazino[1,2-a]indole], which Ki is on record?
Its Ki is 12.5 nM.

`Fc1ccc2c(c1)cc1n2CCN(CCN2CCCCCC2)C1` [Example 9, 2-(2-(azepan-1-yl)ethyl)-8-fluoro-1,2,3,4-tetrahydropyrazino[1,2-a]indole] was tested. Which Ki did it give?
The Ki was 1.9 nM.

With `Cc1ccc2c(c1)cc1n2CCN(CC(C)N2CCCCCC2)C1` (stereo not shown) [Example 10, 2-(2-(azepan-1-yl)propyl)-8-methyl-1,2,3,4-tetrahydropyrazino[1,2-a]indole] as the compound, how does the Ki read?
The Ki was 7.4 nM.

Which Ki does the source give for `Cc1c2n(c3ccccc13)CCN(CCN1CCC(Cc3ccccc3)CC1)C2` [Example 11, 2-(2-(4-benzylpiperidin-1-yl)ethyl)-10-methyl-1,2,3,4-tetrahydropyrazino[1,2-a]indole] here?
The Ki was 21.4 nM.

With `Fc1ccc2c(c1)cc1n2CCN(CCCCN2CCCCC2)C1` [Example 12, 8-fluoro-2-(4-(piperidin-1-yl)butyl)-1,2,3,4-tetrahydropyrazino[1,2-a]indole] as the compound, how does the Ki read?
The Ki was 7.6 nM.

With `c1ccc2c(c1)cc1n2CCN(CCCN2CCCCCC2)C1` [Example 13, 2-(3-(azepan-1-yl)propyl)-1,2,3,4-tetrahydropyrazino[1,2-a]indole] as the compound, how does the Ki read?
Its Ki is 19.9 nM.

`c1ccc2c(c1)cc1n2CCN(CCCCN2CCCCC2)C1` [Example 14, 2-(4-(piperidin-1-yl)butyl)-1,2,3,4-tetrahydropyrazino[1,2-a]indole] was tested. Which Ki did it give?
The Ki was 13.5 nM.

For `Fc1ccc2c(c1)cc1n2CCN(CCCCN2CCCCCC2)C1` [Example 15, 2-(4-(azepan-1-yl)butyl)-8-fluoro-1,2,3,4-tetrahydropyrazino[1,2-a]indole], which Ki is on record?
Its Ki is 8.6 nM.

`CN1CCN(CCCCN2CCn3c(cc4ccccc43)C2)CC1` [Example 16, 2-(4-(4-methylpiperazin-1-yl)butyl)-1,2,3,4-tetrahydropyrazino[1,2-a]indole] was tested. Which Ki did it give?
Its Ki is 35.8 nM.

How did the Ki turn out when `CC(CN1CCn2c(cc3ccccc32)C1)N1CCN(C2CCCCC2)CC1` (stereo not shown) [Example 17, 2-(2-(4-cyclohexylpiperazin-1-yl)propyl)-1,2,3,4-tetrahydropyrazino[1,2-a]indole] was run?
The Ki was 9.2 nM.

Which Ki does the source give for `CC(CN1CCn2c(cc3cc(F)ccc32)C1)N1CCN(C)CC1` (stereo not shown) [Example 18, 8-fluoro-2-(2-(4-methylpiperazin-1-yl)propyl)-1,2,3,4-tetrahydropyrazino[1,2-a]indole] here?
The Ki was 14.1 nM.

`CN(C)CCCCN1CCN2c3ccccc3CC2C1` (stereo not shown) [Example 19, N,N-dimethyl-4-(3,4,10,10a-tetrahydropyrazino[1,2-a]indol-2(1H)-yl)butan-1-amine] was tested. Which Ki did it give?
The Ki was 153 nM.

Source: patent US9879015B2, “Pyrazino[1,2-a]indole compounds, their preparation and use in medicaments” (LABORATORIOS DEL DR. ESTEVE S.A., priority 2013, dated 2018)
